Each structure is given as a SMILES string.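 Five concentrations, 48 hours, 96-well plates. The concentration for 50% growth inhibition is given as GI50.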 Activity calls are given as the source filed them. No stated cut-off is given here; in the data, active = GI50 up to about 1.1 µM and inactive = higher.

Some test systems named below: HCC 2998; OVCAR-5; K562; KM12; SNB-19; HOP-92; SF-539; SK-OV-3; OVCAR-3; U-251; Malme-3M; UACC-62; NCI-H522; RPMI-8226; IGROV-1; SK-MEL-28; COLO 205; NCI-H23; UACC-257; DU-145.
Common to all, as to assay: growth of human tumour cells (NCI), 48 h

Regarding `CCOc1ccc(Nc2nc(C)c(C(=O)/C=C/c3ccc(Cl)cc3Cl)s2)cc1`, the GI50 with HCC 2998 was 23.9 µM (inactive); in the experiment with OVCAR-5, 40.8 µM (inactive); in the experiment on K562, 33.2 µM (inactive); with KM12, 18.3 µM (inactive); in the experiment on SNB-19, 31.4 µM (inactive); in the experiment with HOP-92, 30 µM (inactive). For the same molecule, the GI50 in the experiment on SF-539 was 27.8 µM (inactive); in the experiment with SK-OV-3, 28.6 µM (inactive); with OVCAR-3 it was 20.2 µM (inactive); in the experiment with U-251 it was 19.8 µM (inactive); in the experiment on Malme-3M, 26.3 µM (inactive); in the experiment with UACC-62, 24 µM (inactive). Also, the GI50 in the experiment on NCI-H522 was 21.1 µM (inactive); in the experiment with RPMI-8226, 46.9 µM (inactive); in the experiment on IGROV-1 it was 35.5 µM (inactive); in the experiment on SK-MEL-28, 22.7 µM (inactive); with COLO 205, 17.8 µM (inactive); in the experiment with NCI-H23 it was 22.6 µM (inactive). Further, the GI50 in the experiment on UACC-257 was 24.6 µM (inactive).
In the case of `CC(C)(C)OC(=O)NCCc1cccc2c1oc1c(CCC(=O)O)cccc12`, the GI50 in the experiment on HCC 2998, in the experiment with OVCAR-5, with K562, in the experiment on KM12, with SNB-19 and in the experiment with HOP-92 was > 100 µM (inactive) each time. Also, the GI50 in the experiment with SF-539 is > 100 µM (inactive); in the experiment on SK-OV-3, > 100 µM (inactive); in the experiment on OVCAR-3, 50.7 µM (inactive); in the experiment on U-251 it was > 100 µM (inactive); in the experiment on Malme-3M, > 100 µM (inactive); in the experiment with UACC-62, > 100 µM (inactive). The GI50 with NCI-H522, in the experiment on RPMI-8226, with IGROV-1, in the experiment with SK-MEL-28, in the experiment on COLO 205 and in the experiment with NCI-H23 was > 100 µM (inactive) each time. Also, the GI50 with UACC-257 was > 100 µM (inactive).
Regarding `CCc1nn(S(=O)(=O)c2ccc(C)cc2)c2c1CS(=O)(=O)CC2`, the GI50 is > 100 µM (inactive) with DU-145; > 100 µM (inactive) with OVCAR-5; > 100 µM (inactive) in the experiment with K562; > 100 µM (inactive) in the experiment on KM12; > 100 µM (inactive) in the experiment on SNB-19; 91.4 µM (inactive) in the experiment on SF-539. The GI50 was 69.3 µM (inactive) in the experiment with SK-OV-3; > 100 µM (inactive) with OVCAR-3; > 100 µM (inactive) in the experiment on U-251; > 100 µM (inactive) in the experiment on UACC-62; > 100 µM (inactive) with RPMI-8226; > 100 µM (inactive) with SK-MEL-28. Besides, the GI50 in the experiment with COLO 205, in the experiment with NCI-H23 and in the experiment on UACC-257 was > 100 µM (inactive) throughout.
For `CN(C)c1cccc(-c2cc(O)c3cc4c(cc3n2)OCO4)c1`, the GI50 was 0.193 µM (active) with HCC 2998; 0.274 µM (active) with OVCAR-5; 0.146 µM (active) in the experiment with K562; 0.0456 µM (active) in the experiment on KM12; 0.365 µM (active) in the experiment on SNB-19; 2.15 µM (inactive) in the experiment on HOP-92. Besides, the GI50 with SF-539 is 0.171 µM (active); with SK-OV-3, 0.123 µM (active); in the experiment on OVCAR-3, 0.0807 µM (active); in the experiment with U-251, 0.247 µM (active); with Malme-3M, 0.131 µM (active); in the experiment on UACC-62, 0.136 µM (active). The GI50 in the experiment on NCI-H522 is 0.0505 µM (active); with RPMI-8226, 0.473 µM (active); with IGROV-1 it was 0.625 µM (active); in the experiment on SK-MEL-28, 0.0553 µM (active); in the experiment with COLO 205 it was 0.2 µM (active); with NCI-H23 it was 0.326 µM (active). Moreover, the GI50 in the experiment on UACC-257 was 0.916 µM (active).
Regarding `O=C(O)c1cc2c3ccccc3nc-2c[nH]1`, the GI50 in the experiment on HCC 2998, with OVCAR-5, in the experiment on K562, with KM12, with SNB-19 and with HOP-92 was > 100 µM (inactive) throughout. In addition, the GI50 with SF-539, with SK-OV-3, with OVCAR-3, with U-251, in the experiment with Malme-3M and in the experiment on UACC-62 was > 100 µM (inactive) throughout. Further, the GI50 in the experiment with NCI-H522, in the experiment on RPMI-8226, in the experiment on IGROV-1, with SK-MEL-28, with COLO 205 and in the experiment on NCI-H23 was > 100 µM (inactive) throughout. Further, the GI50 in the experiment on UACC-257 is > 100 µM (inactive).
As for `COC(=O)CCC(=O)CC(=O)C(=O)Nc1ccc(F)cc1`, the GI50 with HCC 2998, in the experiment with OVCAR-5, in the experiment with K562, in the experiment with KM12, in the experiment with SNB-19 and in the experiment on HOP-92 was > 100 µM (inactive) throughout. For the same molecule, the GI50 in the experiment with SF-539, with SK-OV-3, in the experiment on OVCAR-3, in the experiment on U-251, in the experiment on Malme-3M and with UACC-62 was > 100 µM (inactive) throughout. Further, the GI50 in the experiment on NCI-H522, in the experiment with RPMI-8226, in the experiment on IGROV-1, in the experiment with SK-MEL-28, with COLO 205 and with NCI-H23 was > 100 µM (inactive) throughout. The GI50 in the experiment on UACC-257 is > 100 µM (inactive).
`Cc1ccc(NC(=O)CC/C(CC(=O)C(C)(C)C)=N/NC(=O)C(N)=O)cc1C`: the GI50 in the experiment on HCC 2998, in the experiment with OVCAR-5, with K562, in the experiment on KM12, with SNB-19 and with HOP-92 was > 100 µM (inactive) each time. Further, the GI50 with SF-539, with SK-OV-3, in the experiment with OVCAR-3, with U-251, in the experiment with Malme-3M and in the experiment with UACC-62 was > 100 µM (inactive) in each case. Moreover, the GI50 in the experiment with NCI-H522, in the experiment with RPMI-8226, with IGROV-1, in the experiment with SK-MEL-28, in the experiment on COLO 205 and in the experiment with NCI-H23 was > 100 µM (inactive) in each case. Besides, in the experiment on UACC-257, the GI50 was > 100 µM (inactive).
`O=C1c2ccccc2C(=O)c2c(O)c(O)cc(O)c21` [PURPURIN]: the GI50 in the experiment on HCC 2998 is 32.7 µM (inactive); in the experiment on OVCAR-5 it was 80.7 µM (inactive); with K562, 36.5 µM (inactive); in the experiment on KM12, 41.5 µM (inactive); in the experiment with SNB-19, 34.1 µM (inactive); in the experiment on HOP-92, 25.2 µM (inactive). For the same molecule, the GI50 in the experiment with SF-539 is 17.8 µM (inactive); in the experiment with SK-OV-3, 31.8 µM (inactive); with OVCAR-3, 22.4 µM (inactive); with U-251, 35.6 µM (inactive); in the experiment on Malme-3M, 32.7 µM (inactive); in the experiment on UACC-62, 26.1 µM (inactive). Moreover, the GI50 in the experiment on NCI-H522 was 33.6 µM (inactive); in the experiment with RPMI-8226, 25.8 µM (inactive); in the experiment on IGROV-1, 31.6 µM (inactive); in the experiment on SK-MEL-28, 38.6 µM (inactive); with COLO 205 it was 34 µM (inactive); with NCI-H23 it was 29.9 µM (inactive). For the same molecule, the GI50 in the experiment on UACC-257 is 49.4 µM (inactive).
Regarding `COC(=O)C1=C(C(=O)OC)C2(C(=O)OC)OC1(OC)C(C1(C(=O)OC)C(C(=O)OC)=C1C(=O)OC)=C2C(=O)OC` (stereo not given), the GI50 with HCC 2998, in the experiment on OVCAR-5, in the experiment with K562, in the experiment on KM12, in the experiment on SNB-19 and in the experiment on HOP-92 was > 100 µM (inactive) throughout. Further, the GI50 with SF-539, with SK-OV-3, in the experiment on OVCAR-3, in the experiment with U-251, in the experiment with Malme-3M and in the experiment on UACC-62 was > 100 µM (inactive) each time. The GI50 in the experiment with NCI-H522, in the experiment with RPMI-8226, in the experiment on IGROV-1, with SK-MEL-28, in the experiment with COLO 205 and in the experiment on NCI-H23 was > 100 µM (inactive) in each case. Also, the GI50 with UACC-257 is > 100 µM (inactive).
Take `C=CC1=CSNN1`: the GI50 in the experiment with HCC 2998, in the experiment on OVCAR-5, with K562, in the experiment on KM12, in the experiment on SNB-19 and in the experiment on HOP-92 was > 100 µM (inactive) throughout. The GI50 in the experiment with SF-539, in the experiment with SK-OV-3, in the experiment with OVCAR-3, in the experiment with U-251, with Malme-3M and in the experiment with UACC-62 was > 100 µM (inactive) each time. Further, the GI50 with NCI-H522, with RPMI-8226, in the experiment with IGROV-1, in the experiment with SK-MEL-28, with COLO 205 and with NCI-H23 was > 100 µM (inactive) in each case. For the same molecule, the GI50 with UACC-257 was > 100 µM (inactive).
As to `Nc1ccn(CCCC(c2ccccc2)P(=O)(O)O)c(=O)n1` (stereo not given), the GI50 was > 100 µM (inactive) in the experiment with HCC 2998; > 100 µM (inactive) with OVCAR-5; > 100 µM (inactive) with K562; > 100 µM (inactive) in the experiment with KM12; > 100 µM (inactive) with SNB-19; 91.4 µM (inactive) in the experiment with HOP-92. The GI50 with SF-539, in the experiment with SK-OV-3, in the experiment on OVCAR-3, in the experiment on U-251, in the experiment with Malme-3M and in the experiment on UACC-62 was > 100 µM (inactive) throughout. Besides, the GI50 in the experiment on NCI-H522, in the experiment with RPMI-8226, with IGROV-1, in the experiment with SK-MEL-28, in the experiment with COLO 205 and in the experiment with NCI-H23 was > 100 µM (inactive) in each case. Further, the GI50 with UACC-257 is > 100 µM (inactive).

Source of the values: ChEMBL document CHEMBL1201862, “PubChem BioAssay data set” (2004).
